# The RepoRT retention time repository
# Test: Waters ACQUITY UPLC BEH C18, 100 × 2.1 mm, 1.7 µm, 40 °C, 0.3 to 0.4 mL/min, estimated dead time 0.63 min; A: water + 0.1% formic acid; B: methanol + 0.1% formic acid; gradient (min/%B) 0/0.5 0.1/0.5 10/80 10.1/99.5 12/99.5
# Conditions: stereoisomer not certain
row,LC retention time [min],SMILES
1,6.06,COc1ccc(-c2coc3cc(OC4OC(COC(=O)CC(=O)O)C(O)C(O)C4O)cc(O)c3c2=O)cc1 (configuration not stated)
2,6.26,COc1cc(C=CC(=O)O)cc(OC)c1
3,7.33,COC1C(O)C(OC2C(OC3C(OC4CCC5(C)C(CCC6(C)C5CC=C5C7CC(C)(C)CC(O)C7(C)CCC56C)C4(C)CO)OC(C(=O)O)C(O)C3O)OC(C(=O)O)C(O)C2O)OC(CO)C1OC(C)=O (configuration not stated)
4,1.69,OCC1OC(OCC2OC(OCC3OC(OC4(CO)OC(CO)C(O)C4O)C(O)C(O)C3O)C(O)C(O)C2O)C(O)C(O)C1O (configuration not stated)
5,3.42,COC(=O)C1=COC(OC2OC(CO)C(O)C(O)C2O)C2C(CO)=CCC12 (configuration not stated)
6,5.92,COc1ccc2c(c1)OC1c3ccc(O)cc3OCC21 (configuration not stated)
7,6.97,CC1(C)CC(O)C2(C)CCC3(C)C(=CCC4C5(C)CCC(OC6OC(C(=O)O)C(O)C(O)C6OC6OC(CO)C(O)C(O)C6OC6OC(CO)C(O)C(O)C6O)C(C)(CO)C5CCC43C)C2C1 (configuration not stated)
8,4.55,COC(=O)C1=C2Nc3ccccc3C23CCN2CCC1C(C(C)OC)C23 (configuration not stated)
9,1.82,CCC(C)C(N)C(=O)NC(CCC(N)=O)C(=O)O (configuration not stated)
10,4.68,COc1cc(C=CC(=O)OC2C(OC3C(Oc4cc(O)c5c(=O)cc(-c6ccc(O)c(OC)c6)oc5c4)OC(C(=O)O)C(O)C3O)OC(C(=O)O)C(O)C2O)ccc1O (configuration not stated)
11,4.96,COc1cc2c(cc1OC)-c1cc3ccc(OC)c(OC)c3c[n+]1CC2
12,9.02,O=C(C=Cc1ccccc1)c1ccccc1
13,4.27,O=C1c2c(O)cc(O)cc2OC(c2ccc(O)c(O)c2)C1O (configuration not stated)
14,6.01,CC(C)=CCCC(C)(OC1OC(COC2OC(CO)C(O)C2O)C(O)C(O)C1O)C1CCC2(C)C1C(O)CC1C3(C)CCC(OC4OC(CO)C(O)C(O)C4OC4OC(CO)C(O)C(O)C4O)C(C)(C)C3CCC12C (configuration not stated)
15,4.36,COc1cc(-c2oc3cc(O)cc(O)c3c(=O)c2OC2OC(CO)C(O)C(O)C2O)cc(OC)c1O (configuration not stated)
16,5.73,CC1(C)CC(O)C2(C)CCC3(C)C(=CCC4C5(C)CCC(OC6OC(C(=O)O)C(O)C(O)C6OC6OC(CO)C(O)C(O)C6OC6OCC(O)C(O)C6O)C(C)(CO)C5CCC43C)C2C1 (configuration not stated)
17,2.57,CN1CCC23c4ccccc4NC1C21CCN(C)C3Nc2ccccc21
18,8.75,COc1ccc2ccc(=O)oc2c1CC=C(C)C
19,6.04,COc1ccc(C2CC(=O)c3c(O)cc(O)cc3O2)cc1O (configuration not stated)
20,2.08,CS(=O)CCCCCCCN (configuration not stated)
21,3.67,COc1cc(CC(COC2OC(CO)C(O)C(O)C2O)C(COC2OC(CO)C(O)C(O)C2O)Cc2ccc(O)c(OC)c2)ccc1O (configuration not stated)
22,4.38,O=c1oc2cc(OC3OC(CO)C(O)C(O)C3O)ccc2c2oc3cc(O)ccc3c12 (configuration not stated)
23,3.34,O=c1c(OC2OC(CO)C(O)C(O)C2O)c(-c2cc(O)c(O)c(OC3OC(CO)C(O)C(O)C3O)c2)oc2cc(O)cc(O)c12 (configuration not stated)

# Further lines, the compound ahead of its results:
row,SMILES,LC retention time [min]
1,CC1OC(OCC2OC(Oc3cc4c(O)cc(O)cc4[o+]c3-c3ccc(O)c(O)c3)C(O)C(O)C2O)C(O)C(O)C1O (configuration not stated),2.94
2,CCC1=CC2CN3CCc4c([nH]c5ccccc45)C(C(=O)OC)(C2)C13 (configuration not stated),5.04
3,CC1OC(OC2C(COC3OC(CO)C(O)C(O)C3O)OC(OC3CCC4(C)C(CCC5(C)C4C=CC4=C6CC(C)(C)CCC6(CO)C(O)CC45C)C3(C)C)C(O)C2O)C(O)C(O)C1O (configuration not stated),6.29
4,C=C1CC(=CC)C(=O)OC2CCN3CC=C(COC(=O)C1(C)O)C23 (configuration not stated),3.45
5,CC(CCC1(O)OC2CC3C4CC=C5CC(O)CCC5(C)C4CCC3(C)C2C1C)COC1OC(CO)C(O)C(O)C1O (configuration not stated),6.58
6,CC(C)=CCc1cc(C2Oc3c(ccc(O)c3CC=C(C)C)C(=O)C2O)ccc1O (configuration not stated),10.2
7,CCSSCC(NCC1(O)OCC(O)C(O)C1O)C(=O)NCCC(=O)O (configuration not stated),3.29
8,CC(CCC1(O)OC2CC3C4CCC5CC(OC6OC(CO)C(OC7OC(CO)C(O)C(O)C7OC7OC(CO)C(O)C(O)C7O)C(O)C6O)CCC5(C)C4CCC3(C)C2C1C)COC1OC(CO)C(O)C(O)C1O (configuration not stated),4.91
9,O=c1c(-c2ccc(O)cc2)coc2cc(O)ccc12,5.15
10,CC(C)=CCc1c(O)cc(O)c2c1OCC(c1ccc(O)cc1O)C2=O (configuration not stated),7.04
11,C=CC1c2cc3n(c(=O)c2C2OC1OC1OC(CO)C(O)C(O)C1O2)CCc1c-3[nH]c2ccccc12 (configuration not stated),5.46
12,OCC(Cc1cccc(O)c1)C(CO)Cc1cccc(O)c1 (configuration not stated),5.26
13,COc1cccc(C=CC(=O)O)c1,6.03
14,O=C1OCC(Cc2cccc(O)c2)C1Cc1cccc(O)c1 (configuration not stated),6.18
15,Cc1c2ccncc2c(C)c2c1[nH]c1ccccc12,4.93
16,COc1ccc(-c2oc3c(CC=C(C)C)c(OC4OC(CO)C(O)C(O)C4O)cc(O)c3c(=O)c2OC2OC(C)C(O)C(O)C2O)cc1 (configuration not stated),5.43
17,COc1ccc(C=Cc2cc(OC)cc(OC)c2)cc1,9.6

row,SMILES,LC retention time [min]
1,CCC1(O)C(=O)OCc2c1cc1n(c2=O)Cc2cc3ccccc3nc2-1 (configuration not stated),5.4
2,COC(=O)C=Cc1ccccc1,2.87
3,CC1CCC2(NC1)OC1CC3C4CCC5CC(OC6OC(CO)C(OC7OC(CO)C(O)C(OC8OC(O)C(O)C(O)C8O)C7OCC(O)C(O)C(O)C(O)CO)C(O)C6O)CCC5(C)C4CCC3(C)C1C2C (configuration not stated),4.32
4,CC1CCC2(OC1)OC1C(O)C3C4CCC5CC(OC6OC(CO)C(OC7OC(CO)C(O)C(OC8OCC(O)C(O)C8O)C7OC7OC(CO)C(O)C(OC8OC(CO)C(O)C(O)C8O)C7O)C(O)C6O)C(O)CC5(C)C4CCC3(C)C1C2C (configuration not stated),6.99
5,COc1ccc2c(c1O)-c1c(OC)c(OC)cc3c1C(C2)N(C)CC3 (configuration not stated),3.92
6,CCCCCC=CCC=CCC=CCCCCC(=O)OC(CO)COP(=O)(O)OCCN (configuration not stated),8.73
7,CC1OC(OC2CC(C)(C)CC3C4=CCC5C6(C)CCC(OC7OC(C(=O)O)C(O)C(O)C7OC7OC(CO)C(O)C(O)C7OC7OCC(O)C(O)C7O)C(C)(CO)C6CCC5(C)C4(C)CCC23C)C(O)C(O)C1O (configuration not stated),5.56
8,COc1ccccc1C=CC(=O)O,6.12
9,O=C(O)C1OC(Oc2c(-c3ccc(O)cc3)oc3cc(O)cc(O)c3c2=O)C(O)C(O)C1O (configuration not stated),4.34
10,CC1C(=O)OC2C(O)C34C5CC(C(C)(C)C)C36C(OC(=O)C6O)OC4(C(=O)O5)C12O (configuration not stated),5.36
11,CS(=O)CCCCC#N (configuration not stated),2.21
12,COc1ccc(C(=O)OC2CC3CCC(C2)N3C)cc1OC (configuration not stated),3.95
13,O=C(O)CCCCCCCC(=O)O,4.78
14,CC(C)=CCc1c(O)c(-c2cc(-c3cc(=O)c4c(O)cc(O)cc4o3)ccc2O)c2oc(-c3ccc(O)cc3)cc(=O)c2c1O,7.57
15,CC1OC(OC2C(OC3C(OC4CCC5(C)C(CCC6(C)C5C=CC5=C7CC(C)(C)CC(O)C7(C)CCC56C)C4(C)CO)OC(C(=O)O)C(O)C3O)OC(C(=O)O)C(O)C2O)C(O)C(O)C1O (configuration not stated),7.57
16,COc1ccc2c(c1)[nH]c1c(C)nccc12,4.11
17,CCC(C)C(N)C(=O)NC(C(=O)O)C(C)C (configuration not stated),2.55
